Read-outs that look alike come from different tables or passages of the source.
Tests used:
HIV-IIIb = test: Antiviral assay in MT-4 cells infected with HIV-IIIb; type: cell-based; settings: MT4, 120 h, read-out: EC50 Range MT-4
Method: See: Wolfe, etal J. Virol.
Antiviral Assays in MT2 and MT4 Cells
For the antiviral assay utilizing MT-2 cells, 50 μl of 2× test concentration of 5-fold serially diluted compound in culture medium with 10% FBS was added to each well of a 96-well plate (9 concentrations) in triplicate. MT-2 cells were infected with HIV-IIIb at a multiplicity of infection (m.o.i) of 0.01 for 3 hours. Fifty microliters of infected cell suspension in culture medium with 10% FBS (˜1.5×10^4 cells) was then added to each well containing 50 μl of diluted compound. The plates were then incubated at 37° C. for 5 days. For the antiviral assay utilizing MT-4 cells, 20 μl of 2× test concentration of 5-fold serially diluted compound in culture medium with 10% FBS was added to each well of a 384-well plate (7 concentrations) in triplicate. MT-4 cells were next mixed with HIV-IIIb at an m.o.i. of 0.1 and 20 μl of virus/cell mixture (˜2000 cells) was immediately added to each well containing 20 μl of diluted compound. The plates were then incubated at 37° C. for 5 days. After 5 days of incubation, 100 μl of CellTiter-Glo™ Reagent (catalog # G7571, Promega Biosciences, Inc., Madison, Wis.) was added to each well containing MT-2 cells and 40 μl to each well containing MT-4 cells. Cell lysis was carried out by incubating at room temperature for 10 min and then chemiluminescence was read.

HIV integrase = HIV integrase (Human immunodeficiency virus type 1 group M subtype B, UniProt P04585); test: biochemical

SMILES | EC50 (HIV-IIIb; MT-4 cells, HIV-IIIb, 5 days) | IC50 (HIV integrase) | EC50 (HIV-IIIb)
CC(=O)N(C)c1c2c(c(O)c3ncccc13)C(=O)N(Cc1ccc(F)cc1)C2 [Compound 64, N-(7-(4-fluorobenzyl)-9-hydroxy-8-oxo-7,8-dihydro-6H-pyrrolo[3,4-g]quinolin-5-yl)-N-methylacetamide] | < 60 nM | < 60 nM | 
CN(C)C(=O)N(C)c1c2c(c(O)c3ncccc13)C(=O)N(Cc1ccc(F)cc1)C2 [Compound 171, 1-(7-(4-fluorobenzyl)-9-hydroxy-8-oxo-7,8-dihydro-6H-pyrrolo[3,4-g]quinolin-5-yl)-1,3,3-trimethylurea] | < 60 nM | < 60 nM | 
CN(c1c2c(c(O)c3ncccc13)C(=O)N(Cc1ccc(F)c(F)c1)C2)S(C)(=O)=O [Compound 179, N-(7-(3,4-difluorobenzyl)-9-hydroxy-8-oxo-7,8-dihydro-6H-pyrrolo[3,4-g]quinolin-5-yl)-N-methylmethanesulfonamide] | < 60 nM | < 60 nM | 
CN(Cc1ccncc1)S(=O)(=O)N(C)c1c2c(c(O)c3ncccc13)C(=O)N(Cc1ccc(F)cc1)C2 [Compound 136, N-(7-(4-fluorobenzyl)-9-hydroxy-8-oxo-7,8-dihydro-6H-pyrrolo[3,4-g]quinolin-5-yl)-N-methyl-N′-methyl-N′-(pyridin-4-ylmethyl)sulfamide] | 60 to 1000 nM | 60 to 1000 nM | 
CN(c1c2c(c(O)c3ncccc13)C(=O)N(Cc1ccc(F)nc1)C2)S(C)(=O)=O [Compound 97, N-(7-((6-fluoropyridin-3-yl)methyl)-9-hydroxy-8-oxo-7,8-dihydro-6H-pyrrolo[3,4-g]quinolin-5-yl)-N-methylmethanesulfonamide] | 60 to 1000 nM | 60 to 1000 nM | 
CN(c1c2c(c(O)c3ncccc13)C(=O)N(Cc1ccc(F)cc1F)C2)S(C)(=O)=O [Compound 145, N-(7-(2,4-difluorobenzyl)-9-hydroxy-8-oxo-7,8-dihydro-6H-pyrrolo[3,4-g]quinolin-5-yl)-N-methylmethanesulfonamide] | < 60 nM | < 60 nM | 
CN(c1c2c(c(O)c3ncccc13)C(=O)N(Cc1ccc(F)cc1Cl)C2)S(C)(=O)=O [Compound 147, N-(7-(2-chloro-4-fluorobenzyl)-9-hydroxy-8-oxo-7,8-dihydro-6H-pyrrolo[3,4-g]quinolin-5-yl)-N-methylmethanesulfonamide] | < 60 nM | < 60 nM | 
CC(C)C(=O)N(C)c1c2c(c(O)c3ncccc13)C(=O)N(Cc1ccc(F)cc1)C2 [Compound 69, N-(7-(4-fluorobenzyl)-9-hydroxy-8-oxo-7,8-dihydro-6H-pyrrolo[3,4-g]quinolin-5-yl)-N-methylisobutyramide] | < 60 nM | < 60 nM | 
CN(c1c2c(c(O)c3ncccc13)C(=O)N(Cc1ccc(F)cc1S(C)(=O)=O)C2)S(C)(=O)=O [Compound 106, N-(7-(4-fluoro-2-(methylsulfonyl)benzyl)-9-hydroxy-8-oxo-7,8-dihydro-6H-pyrrolo[3,4-g]quinolin-5-yl)-N-methylmethanesulfonamide] | < 60 nM | 60 to 1000 nM | 
CN(c1c2c(c(O)c3ncccc13)C(=O)N(Cc1cc(Cl)ccc1F)C2)S(C)(=O)=O [Compound 211, N-(7-(5-chloro-2-fluorobenzyl)-9-hydroxy-8-oxo-7,8-dihydro-6H-pyrrolo[3,4-g]quinolin-5-yl)-N-methylmethanesulfonamide] | < 60 nM | 60 to 1000 nM | 
CN(c1c2c(c(O)c3ncccc13)C(=O)N(Cc1ccc(F)cc1)C2)S(=O)(=O)CC(F)(F)F [Compound 156, 2,2,2-trifluoro-N-(7-(4-fluorobenzyl)-9-hydroxy-8-oxo-7,8-dihydro-6H-pyrrolo[3,4-g]quinolin-5-yl)-N-methylethane-1-sulfonamide] | 60 to 1000 nM | < 60 nM | 
Nc1c2c(c(O)c3ncccc13)C(=O)N(Cc1ccc(F)cc1)C2=O [Compound 8, 5-amino-7-(4-fluorobenzyl)-9-hydroxy-6H-pyrrolo[3,4-g]quinoline-6,8(7H)-dione] | > 1000 nM | 60 to 1000 nM | 
CN(C(=O)N1CCOCC1)c1c2c(c(O)c3ncccc13)C(=O)N(Cc1ccc(F)cc1)C2 [Compound 173, N-(7-(4-fluorobenzyl)-9-hydroxy-8-oxo-7,8-dihydro-6H-pyrrolo[3,4-g]quinolin-5-yl)-N-methylmorpholine-4-carboxamide] | 60 to 1000 nM | 60 to 1000 nM | 
CN(C)c1cccc2c(S(=O)(=O)N(C)c3c4c(c(O)c5ncccc35)C(=O)N(Cc3ccc(F)cc3)C4)cccc12 [Compound 154, 5-(dimethylamino)-N-(7-(4-fluorobenzyl)-9-hydroxy-8-oxo-7,8-dihydro-6H-pyrrolo[3,4-g]quinolin-5-yl)-N-methylnaphthalene-1-sulfonamide] | > 1000 nM | 60 to 1000 nM | 
CN(c1c2c(c(O)c3ncccc13)C(=O)N(Cc1ccc(F)cn1)C2)S(C)(=O)=O [Compound 151, N-(7-((5-fluoropyridin-2-yl)methyl)-9-hydroxy-8-oxo-7,8-dihydro-6H-pyrrolo[3,4-g]quinolin-5-yl)-N-methylmethanesulfonamide] | 60 to 1000 nM | 60 to 1000 nM | 
CN(c1c2c(c(O)c3ncccc13)C(=O)N(Cc1c(F)cccc1F)C2)S(C)(=O)=O [Compound 195, N-(7-(2,6-difluorobenzyl)-9-hydroxy-8-oxo-7,8-dihydro-6H-pyrrolo[3,4-g]quinolin-5-yl)-N-methylmethanesulfonamide] | 60 to 1000 nM | 60 to 1000 nM | 
O=C1c2c(c(N3CCNC3=O)c3cccnc3c2O)CN1Cc1ccc(F)cc1 [Compound 221, 7-(4-fluorobenzyl)-9-hydroxy-5-(2-oxoimidazolidin-1-yl)-6,7-dihydropyrrolo[3,4-g]quinolin-8-one] | < 60 nM | < 60 nM | 
CCC(CC)OC(=O)OCOc1c2c(c(N(C)S(C)(=O)=O)c3cccnc13)CN(Cc1ccc(F)cc1)C2=O [Compound 32, (7-(4-fluorobenzyl)-5-(N-methylmethan-5-ylsulfonamido)-8-oxo-7,8-dihydro-6H-pyrrolo[3,4-g]quinolin-9-yloxy)methyl pentan-3-yl carbonate] | 60 to 1000 nM | > 1000 nM | 
CN(c1c2c(c(O)c3ncccc13)C(=O)N(Cc1ccc(F)cc1)C2)S(=O)(=O)c1cn(C)cn1 [Compound 56, N-(7-(4-fluorobenzyl)-9-hydroxy-8-oxo-7,8-dihydro-6H-pyrrolo[3,4-g]quinolin-5-yl)-N,1-dimethyl-1 H-imidazole-4-sulfonamide] | < 60 nM | < 60 nM | 
CNC(=O)c1cc(F)ccc1CN1Cc2c(c(O)c3ncccc3c2N(C)S(C)(=O)=O)C1=O [Compound 88] | < 60 nM | 60 to 1000 nM | 
CN(c1c2c(c(O)c3ncccc13)C(=O)N(Cc1ccc(F)c(Cl)c1F)C2)S(C)(=O)=O [Compound 199, N-(7-(3-chloro-2,4-difluorobenzyl)-9-hydroxy-8-oxo-7,8-dihydro-6H-pyrrolo[3,4-g]quinolin-5-yl)-N-methylmethanesulfonamide] | < 60 nM | 60 to 1000 nM | 
CN(c1c2c(c(O)c3ncccc13)C(=O)N(Cc1ccncc1)C2)S(C)(=O)=O [Compound 92, N-(9-hydroxy-8-oxo-7-(pyridin-4-ylmethyl)-7,8-dihydro-6H-pyrrolo[3,4-g]quinolin-5-yl)-N-methylmethanesulfonamide] | > 1000 nM | > 1000 nM | 
CN(c1c2c(c(O)c3ncccc13)C(=O)N(Cc1c(F)cc(F)cc1F)C2)S(C)(=O)=O [Compound 187, N-(7-(2,4,6-trifluorobenzyl)-9-hydroxy-8-oxo-7,8-dihydro-6H-pyrrolo[3,4-g]quinolin-5-yl)-N-methylmethanesulfonamide] | < 60 nM | 60 to 1000 nM | 
CN1CCCN(c2c3c(c(O)c4ncccc24)C(=O)N(Cc2ccc(F)cc2)C3)C1=O [Compound 224, 7-(4-fluorobenzyl)-9-hydroxy-5-(3-methyl-2-oxo-tetrahydropyrimidin-1(2H)-yl)-6,7-dihydropyrrolo[3,4-g]quinolin-8-one] |  | < 60 nM | 60 to 1000 nM
CN(c1c2c(c(O)c3ncccc13)C(=O)N(Cc1ccc(F)cc1)C2)S(=O)(=O)CCCN1CCOCC1 [Compound 46, N-(7-(4-fluorobenzyl)-9-hydroxy-8-oxo-7,8-dihydro-6H-pyrrolo[3,4-g]quinolin-5-yl)-N-methyl-3-morpholinopropane-1-sulfonamide] | < 60 nM |  | 
CN(c1c2c(c(O)c3ncccc13)C(=O)N(Cc1ccc(F)cc1)C2)S(=O)(=O)CCCn1ccnc1 [Compound 49, N-(7-(4-fluorobenzyl)-9-hydroxy-8-oxo-7,8-dihydro-6H-pyrrolo[3,4-g]quinolin-5-yl)-3-(1 H-imidazol-1-yl)-N-methylpropane-1-sulfonamide] | < 60 nM |  | 
CCNS(=O)(=O)N(CC)c1c2c(c(O)c3ncccc13)C(=O)N(Cc1ccc(F)cc1)C2 [Compound 232] | < 60 nM |  | 
CN(c1c2c(c(O)c3ncccc13)C(=O)N(Cc1ccc(F)cc1)C2)S(=O)(=O)CCCC#N [Compound 48, 3-cyano-N-(7-(4-fluorobenzyl)-9-hydroxy-8-oxo-7,8-dihydro-6H-pyrrolo[3,4-g]quinolin-5-yl)-N-methylpropane-1-sulfonamide] | < 60 nM |  | 

From patent US20070072831A1, “Integrase inhibitor compounds” (GILEAD SCIENCES, INC., priority 2005, published 2007)
